Reference: patent publication US11377423B2, “Inhibitors of histone deacetylase” (The Broad Institute, Inc., priority 2012, dated 2022)
Where “and” joins values, the source holds several entries; their conditions need not be identical. Equal values may be shown once. Read-outs that look alike come from different tables or passages of the source.

What was measured:
[1] = tested on: INS-1E cells; experiment: Insulin assay (glucose-stimulated insulin secretion and insulin content, ELISA); type: cell-based, rat; conditions: 10 μM, palmitate and 25 mM glucose, 24 h
Protocol: INS-1E cells (20,000 cells/well) were seeded in 96-well plates in 100 uL complete medium. After overnight incubation media was removed and cells were exposed to 100 uL medium/well with the indicated concentrations of palmitate, glucose, HDAC inhibitors and/or vehicle. […] Cells were subsequently incubated with KRBH buffer containing 2 mM or 16 mM glucose for 1 hour. Supernatants were collected for measurement of insulin. For measuring insulin content, cells were washed in PBS and lysed using Passive Lysis Buffer. Insulin was measured with a rat insulin ELISA kit (Alpco). Total insulin content was normalized to total protein (Bradford assay). Each condition was assayed in biological duplicates. Specifically, HDAC3 inhibition is shown to preserve the glucose-induced insulin secretory function. […] FIGS. 13A to 13B are a series of bar graphs. […] Glucose-stimulated insulin secretion and total insulin content were assessed by ELISA. Data are presented as fold to CTRL+SEM, n=3-5, ns=not significant, *p<0.05, **p<0.01, ***p<0.001 vs. CTRL, #p<0.05, ##p<0.01, ###p<0.001 vs. respective treatment. ANOVA with Tukey- or Dunnet-corrected test, or Student's t-test (insulin content).

[2] = target: T1, HDAC1 (Homo sapiens (Human), UniProt Q13547); experiment: Caliper HDAC enzymatic endpoint assay, HDAC1; type: biochemical
T1 sequence (Q13547 whole entry): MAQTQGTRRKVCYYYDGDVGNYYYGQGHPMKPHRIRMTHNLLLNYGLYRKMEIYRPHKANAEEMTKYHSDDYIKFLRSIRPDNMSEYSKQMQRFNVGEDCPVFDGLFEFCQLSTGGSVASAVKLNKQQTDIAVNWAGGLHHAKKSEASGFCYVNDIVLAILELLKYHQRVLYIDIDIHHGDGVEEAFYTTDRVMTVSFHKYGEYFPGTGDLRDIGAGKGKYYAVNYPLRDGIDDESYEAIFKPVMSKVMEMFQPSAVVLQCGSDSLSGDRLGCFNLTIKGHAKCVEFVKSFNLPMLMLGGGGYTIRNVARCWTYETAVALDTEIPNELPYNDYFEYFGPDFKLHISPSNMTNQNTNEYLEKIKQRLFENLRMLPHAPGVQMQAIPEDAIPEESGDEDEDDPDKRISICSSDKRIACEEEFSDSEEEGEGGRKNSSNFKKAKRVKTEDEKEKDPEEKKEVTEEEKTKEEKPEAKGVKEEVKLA

[3] = tested on: Human islets; experiment: Glucolipotoxicity-induced apoptosis in human islets, caspase-3 activity assay; type: cell-based; conditions: 10 μM, 0.5 mM palmitate and 25 mM glucose, 72 h
Text: Human islets were provided by the Integrated Islet Distribution Program administered by the City of Hope Hospital (IIDP: http://iidp.coh.org/). The average reported purity was 85%±5.2 and viability was 94%±0.6 (age 50±5 years, body mass index 31±2.7 kg/m2). Causes of death were head trauma (n=3), stroke and anoxia. Islets were dissociated and seeded (30,000 cells/well) into black optical 96-well plates (Corning Life Sciences) that coated with HTB-9 extracellular matrix as previously described. (Walpita, D., et al. (2012) J. Biomol. Screen. 17, 509-518.) The dissociated islet cell cultures were allowed to attach and grow in CMRL media in 10% FBS for 3 days before exposure to palmitate (0.5 mM) and high glucose (25 mM) in medium with 1% BSA and without FBS for 72 hours.
(§1) Compounds of the invention protect against combined palmitate and high glucose induced apoptosis in INS-1E cells. […] Apoptosis was measured by caspase-3 activity assay.

[4] = target: T1, HDAC1; experiment: Kinetics of the inhibition of HDAC1; conditions: for T1/2: HDAC1 residence
[5] = tested on: Rat islets; experiment: Glucolipotoxicity-induced apoptosis in rat islets, cell death ELISA; type: cell-based; conditions: 10 μM, 0.5 mM palmitate and 25 mM glucose, 60 h
Protocol: Rat islets (50 islets/well) were cultured in 48-well plates (NUNC) and exposed to palmitate (0.5 mM) and glucose (25 mM) in medium supplemented with 1% FBS and 1% BSA for 60 hours. Cell death was determined in biological duplicates using a cell death ELISA assay (Roche).
as §1

[6] = target: HDAC5 (Homo sapiens (Human), UniProt Q9UQL6); experiment: Caliper HDAC enzymatic endpoint assay, HDAC5; type: biochemical; conditions: Table 2C; read-out: HDAC5 IC50 after 0 hr preincubation
Sequence of HDAC5 (Q9UQL6 whole entry): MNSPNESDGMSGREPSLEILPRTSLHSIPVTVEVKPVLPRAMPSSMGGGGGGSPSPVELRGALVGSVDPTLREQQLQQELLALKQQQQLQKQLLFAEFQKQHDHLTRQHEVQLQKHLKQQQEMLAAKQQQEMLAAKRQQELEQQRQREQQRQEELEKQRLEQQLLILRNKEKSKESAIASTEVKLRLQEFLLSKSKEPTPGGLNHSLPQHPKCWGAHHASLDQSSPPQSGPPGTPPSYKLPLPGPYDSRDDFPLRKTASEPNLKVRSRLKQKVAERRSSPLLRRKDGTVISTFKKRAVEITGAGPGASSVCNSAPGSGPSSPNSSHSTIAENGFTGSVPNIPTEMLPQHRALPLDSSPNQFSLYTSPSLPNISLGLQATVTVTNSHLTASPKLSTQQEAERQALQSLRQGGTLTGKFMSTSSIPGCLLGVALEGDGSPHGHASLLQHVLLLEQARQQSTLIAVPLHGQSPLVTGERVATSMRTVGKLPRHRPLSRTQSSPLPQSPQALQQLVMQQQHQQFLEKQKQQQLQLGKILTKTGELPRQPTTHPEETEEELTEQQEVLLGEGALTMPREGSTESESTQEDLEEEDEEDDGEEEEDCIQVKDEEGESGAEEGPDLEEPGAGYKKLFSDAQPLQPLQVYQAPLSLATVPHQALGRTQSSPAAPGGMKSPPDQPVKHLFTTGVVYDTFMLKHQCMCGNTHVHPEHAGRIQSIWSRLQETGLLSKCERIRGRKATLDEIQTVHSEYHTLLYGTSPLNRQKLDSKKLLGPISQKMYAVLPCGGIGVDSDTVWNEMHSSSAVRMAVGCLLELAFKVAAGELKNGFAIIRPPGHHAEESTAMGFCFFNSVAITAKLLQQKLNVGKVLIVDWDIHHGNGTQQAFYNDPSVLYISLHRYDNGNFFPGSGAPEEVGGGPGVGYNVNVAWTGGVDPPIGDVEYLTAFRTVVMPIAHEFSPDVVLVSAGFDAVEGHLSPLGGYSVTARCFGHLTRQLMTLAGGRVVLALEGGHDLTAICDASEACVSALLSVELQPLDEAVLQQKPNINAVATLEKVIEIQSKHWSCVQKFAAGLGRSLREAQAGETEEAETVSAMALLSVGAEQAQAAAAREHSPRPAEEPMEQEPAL

[7] = target: T1, HDAC1; experiment: Binding constant from HDAC1 inactivation kinetics
[8] = target: HDAC2 (Homo sapiens (Human), UniProt Q92769); experiment: Kinetics of the inhibition of HDAC2
Sequence of HDAC2 (Q92769 whole entry): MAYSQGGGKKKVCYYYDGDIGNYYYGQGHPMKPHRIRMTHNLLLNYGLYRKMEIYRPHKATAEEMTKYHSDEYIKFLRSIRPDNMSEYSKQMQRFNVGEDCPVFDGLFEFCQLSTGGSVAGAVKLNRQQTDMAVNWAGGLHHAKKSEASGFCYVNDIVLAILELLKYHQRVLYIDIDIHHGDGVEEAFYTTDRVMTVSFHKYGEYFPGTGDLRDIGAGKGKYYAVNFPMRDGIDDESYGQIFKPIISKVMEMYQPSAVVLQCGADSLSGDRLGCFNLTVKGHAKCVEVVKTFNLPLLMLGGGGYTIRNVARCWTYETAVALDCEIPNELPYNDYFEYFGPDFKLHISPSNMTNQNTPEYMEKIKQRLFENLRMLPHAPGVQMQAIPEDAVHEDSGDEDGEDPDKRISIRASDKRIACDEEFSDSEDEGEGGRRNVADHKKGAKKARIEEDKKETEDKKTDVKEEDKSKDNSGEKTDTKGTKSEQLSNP

[9] = Brain and plasma concentration in mice; type: in vivo; conditions: for half-life: mouse, other: injected (site of injection not given)
Protocol: Specifically, mice were injected with a single dose of compound and the concentration of compound was measured in the brain and plasma of mice at 8 time points. The samples were analyzed by LC-MS/MS.

[10] = mice, single dose, Repligen 136 30 mg/kg, Compound 1 10 mg/kg

IC50 ([2]; read-out: HDAC1 IC50 3 h Prein, Table 2, 3 h preincubation): 1.25 µM
IC50 ([2]; read-out: HDAC1 IC50 3 h Preinc, Table 2A, 3 h preincubation): 1.25 µM
IC50 ([2]; read-out: HDAC1 IC50 @3 hr, 3 hr preincubation): 1.25 µM
koff [4]: ~0.0045 s⁻¹
Kon ([4]; HDAC1): ~0.020 min^−1, uM^−1
koff ([4]; HDAC1): ~0.0045 s⁻¹
type of binding to HDAC1 (words) ([4]; HDAC1): fast off inhibitor
type of binding to HDAC1 (words) ([4]; HDAC1, listed as compound 1): slow on/fast off rates
T1/2 [4]: ~2.5 min
T1/2 ([4]; listed as compound 1): 2.5 min
Ki ([4]; Ki, HDAC1, inhibition kinetics): ~14 µM and 14 µM
IC50 [6]: > 33 µM
KI (inactivation) ([7]; HDAC1, values marked *, read-out: Ki (binding constant derived from HDAC1 inactivation kinetics)): 5.1 µM
Kd ([7]; from Kinactivation vs concentration, read-out: Kd of HDAC1-Compound 1 complex): 5.1 µM
Ki [8]: ~6.3 µM
koff [8]: 0.000867 s⁻¹
Ki ([8]; HDAC2): 6.3 µM
koff ([8]; HDAC2): 0.000867 s⁻¹
type of binding to HDAC2 (words) ([8]; HDAC2): fast off inhibitor
type of binding to HDAC2 (words) ([8]; HDAC2, listed as compound 1): slow on/fast off rates
T1/2 ([8]; HDAC2 residence): 0.217 h
better brain exposure in comparison to Repligen 136 as measured by Cmax ([9]; dose normalized): 30 times
better brain exposure in comparison to Repligen 136 measured by AUC ([9]; dose normalized): 120 times
AUC Brain [9, 10]: 12.77 µM·h
Cmax Brain [9, 10]: 3.80 µM
concentration in the brain over time [9, 10]: still present in the brain after 8 hours
half-life ([9]; brain, read-out: T1/2 Brain (converted)): 2.06 h
half-life ([9]; plasma, read-out: T1/2 Plasma (converted)): 2.26 h
better plasma exposure as measured by AUC than Repligen 136 ([9]; plasma): 30 times
SMILES: CC(=O)Nc1ccc(C(=O)Nc2ccc(F)cc2N)cc1 [Compound 1, 4-acetamido-N-(2-amino-4-fluorophenyl)benzamide]
glucose-stimulated insulin release [1]: restoring insulin release
insulin content [1]: restoring insulin content
glucolipotoxicity-induced apoptosis in human islets [3]: decreases glucolipotoxicity-induced apoptosis in human islets
glucolipotoxicity-induced apoptosis in rat islets [5]: decreases glucolipotoxicity-induced apoptosis in rat islets
Kon ([8]; HDAC2): 0.0082 min^−1, uM^−1 and ~0.0082 min^−1, uM^−1
